Data from US20250230193A1, “CYCLIC COMPOUND HAVING SELECTIVE KRAS INHIBITORY EFFECT ON HRAS AND NRAS” (CHUGAI SEIYAKU KABUSHIKI KAISHA, priority 2022, published 2025).

Columns and labels:
[1] = biological target: GDP-bound NRAS wild-type protein (Homo sapiens, UniProt P01111); experiment: Binding to NRAS by surface plasmon resonance (SPR), Single Cycle Kinetics; conditions: KD ratio, GDP-bound NRAS wild-type vs GDP-bound KRAS wild-type, SPR
[2] = biological target: GDP-bound HRAS wild-type protein (Homo sapiens, UniProt P01112); experiment: Binding to HRAS by surface plasmon resonance (SPR), Single Cycle Kinetics; conditions: KD ratio, GDP-bound HRAS wild-type vs GDP-bound KRAS wild-type, SPR
Sequence of GDP-bound HRAS wild-type protein (P01112 whole entry): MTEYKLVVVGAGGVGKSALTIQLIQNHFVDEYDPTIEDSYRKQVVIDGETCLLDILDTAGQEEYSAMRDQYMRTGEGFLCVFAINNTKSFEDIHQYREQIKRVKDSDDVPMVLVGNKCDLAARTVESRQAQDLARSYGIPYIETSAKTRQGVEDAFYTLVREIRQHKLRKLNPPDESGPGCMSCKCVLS

Sequence of GDP-bound NRAS wild-type protein (P01111 whole entry): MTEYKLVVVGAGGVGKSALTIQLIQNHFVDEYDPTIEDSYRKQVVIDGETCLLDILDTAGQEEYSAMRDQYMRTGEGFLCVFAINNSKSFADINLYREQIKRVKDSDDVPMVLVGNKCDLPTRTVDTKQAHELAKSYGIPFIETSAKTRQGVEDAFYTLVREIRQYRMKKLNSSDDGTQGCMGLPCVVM

SMILES | NRAS/KRAS (ratio of KD value with respect to NRAS to KD value with respect to KRAS) [1] | HRAS/KRAS (ratio of KD value with respect to HRAS to KD value with respect to KRAS) [2]
CC[C@H](C)[C@@H]1NC(=O)[C@H](CC(C)C)N(C)C(=O)C[C@@H](C(=O)N2CCOCC2)N(C)C(=O)[C@H](C2CCCC2)N(C)C(=O)C2(CCC2)NC(=O)[C@@H]2[C@@H](OC)CCN2C(=O)[C@H](CCc2cc(F)c(C(F)(F)F)c(F)c2)NC(=O)CN(C)C(=O)[C@H](Cc2ccc(C(F)(F)F)cc2)N2CCCCC[C@@H](C2=O)N(C)C(=O)CN(C)C1=O [PP1067] | B (a compound having 3 or more and less than 10 is denoted as B) | B (a compound having 3 or more and less than 10 is denoted as B)
CCO[C@H]1CCN2C(=O)[C@H](CCc3cc(F)c(C(F)(F)F)c(F)c3)NC(=O)CN(C)C(=O)[C@H](Cc3ccc(C(F)(F)F)cc3)N3CCCCC[C@@H](C3=O)N(C)C(=O)CN(C)C(=O)[C@H]([C@@H](C)CC)NC(=O)[C@H](CC(C)C)N(C)C(=O)C[C@@H](C(=O)N3CCOCC3)N(C)C(=O)[C@H](C3CCCC3)N(C)C(=O)C3(CCC3)NC(=O)[C@H]12 [PP1068] | A (a compound having 10 or more and less than 20 is denoted as A) | B (a compound having 3 or more and less than 10 is denoted as B)
CCCO[C@H]1CCN2C(=O)[C@H](CCc3cc(F)c(C(F)(F)F)c(F)c3)NC(=O)CN(C)C(=O)[C@H](Cc3ccc(C(F)(F)F)cc3)N3CCCCC[C@@H](C3=O)N(C)C(=O)CN(C)C(=O)[C@H]([C@@H](C)CC)NC(=O)[C@H](CC(C)C)N(C)C(=O)C[C@@H](C(=O)N3CCOCC3)N(C)C(=O)[C@H](C3CCCC3)N(C)C(=O)C3(CCC3)NC(=O)[C@H]12 [PP1069] | A (a compound having 10 or more and less than 20 is denoted as A) | B (a compound having 3 or more and less than 10 is denoted as B)
CCCCO[C@H]1CCN2C(=O)[C@H](CCc3cc(F)c(C(F)(F)F)c(F)c3)NC(=O)CN(C)C(=O)[C@H](Cc3ccc(C(F)(F)F)cc3)N3CCCC[C@@H](C3=O)N(C)C(=O)CN(C)C(=O)[C@H]([C@@H](C)CC)NC(=O)[C@H](CC(C)C)N(C)C(=O)C[C@@H](C(=O)N3CCOCC3)N(C)C(=O)[C@H](C3CCCC3)N(C)C(=O)C3(CCC3)NC(=O)[C@H]12 [PP1071] | B (a compound having 3 or more and less than 10 is denoted as B) | B (a compound having 3 or more and less than 10 is denoted as B)
CC[C@H](C)[C@@H]1NC(=O)[C@H](CC(C)C)N(C)C(=O)C[C@@H](C(=O)N2CCOCC2)N(C)C(=O)[C@H](C2CCCC2)N(C)C(=O)C2(CCC2)NC(=O)[C@@H]2[C@@H](OCC3CC3)CCN2C(=O)[C@H](CCc2cc(F)c(C(F)(F)F)c(F)c2)NC(=O)CN(C)C(=O)[C@H](Cc2ccc(C(F)(F)F)cc2)N2CCCC[C@@H](C2=O)N(C)C(=O)CN(C)C1=O [PP1072] | B (a compound having 3 or more and less than 10 is denoted as B) | B (a compound having 3 or more and less than 10 is denoted as B)
CC[C@H](C)[C@@H]1NC(=O)[C@H](CC(C)C)N(C)C(=O)C[C@@H](C(=O)N2CCOCC2)N(C)C(=O)[C@H](C2CCCC2)N(C)C(=O)C2(CCC2)NC(=O)[C@@H]2[C@@H](OCC3CCCC3)CCN2C(=O)[C@H](CCc2cc(F)c(C(F)(F)F)c(F)c2)NC(=O)CN(C)C(=O)[C@H](Cc2ccc(C(F)(F)F)cc2)N2CCCC[C@@H](C2=O)N(C)C(=O)CN(C)C1=O [PP1073] | B (a compound having 3 or more and less than 10 is denoted as B) | B (a compound having 3 or more and less than 10 is denoted as B)
CC[C@H](C)[C@@H]1NC(=O)[C@H](CC(C)C)N(C)C(=O)C[C@@H](C(=O)N2CCOCC2)N(C)C(=O)[C@H](C2CCCC2)N(C)C(=O)C2(CCC2)NC(=O)[C@@H]2[C@@H](OC)CCN2C(=O)[C@H](CCc2cc(F)c(C(F)(F)F)c(F)c2)NC(=O)CN(C)C(=O)[C@H](Cc2ccc(C(F)(F)F)cc2)N2CCCC[C@@H](C2=O)N(C)C(=O)CN(C)C1=O [PP1075] | B (a compound having 3 or more and less than 10 is denoted as B) | B (a compound having 3 or more and less than 10 is denoted as B)
CCO[C@H]1CCN2C(=O)[C@H](CCc3cc(F)c(C(F)(F)F)c(F)c3)NC(=O)CN(C)C(=O)[C@H](Cc3ccc(C(F)(F)F)cc3)N3CCCC[C@@H](C3=O)N(C)C(=O)CN(C)C(=O)[C@H]([C@@H](C)CC)NC(=O)[C@H](CC(C)C)N(C)C(=O)C[C@@H](C(=O)N3CCOCC3)N(C)C(=O)[C@H](C3CCCC3)N(C)C(=O)C3(CCC3)NC(=O)[C@H]12 [PP1076] | B (a compound having 3 or more and less than 10 is denoted as B) | B (a compound having 3 or more and less than 10 is denoted as B)
CCCO[C@H]1CCN2C(=O)[C@H](CCc3cc(F)c(C(F)(F)F)c(F)c3)NC(=O)CN(C)C(=O)[C@H](Cc3ccc(C(F)(F)F)cc3)N3CCCC[C@@H](C3=O)N(C)C(=O)CN(C)C(=O)[C@H]([C@@H](C)CC)NC(=O)[C@H](CC(C)C)N(C)C(=O)C[C@@H](C(=O)N3CCOCC3)N(C)C(=O)[C@H](C3CCCC3)N(C)C(=O)C3(CCC3)NC(=O)[C@H]12 [PP1077] | B (a compound having 3 or more and less than 10 is denoted as B) | B (a compound having 3 or more and less than 10 is denoted as B)
CCO[C@@H]1CCN2C(=O)[C@H](CCc3cc(F)c(C(F)(F)F)c(F)c3)NC(=O)CN(C)C(=O)[C@H](Cc3ccc(C(F)(F)F)cc3)N3CCCC[C@@H](C3=O)N(C)C(=O)CN(C)C(=O)[C@H]([C@@H](C)CC)NC(=O)[C@H](CC(C)C)N(C)C(=O)C[C@@H](C(=O)N3CCOCC3)N(C)C(=O)[C@H](C3CCCC3)N(C)C(=O)C3(CCC3)NC(=O)[C@H]12 [PP1079] | B (a compound having 3 or more and less than 10 is denoted as B) | B (a compound having 3 or more and less than 10 is denoted as B)
CCCO[C@@H]1CCN2C(=O)[C@H](CCc3cc(F)c(C(F)(F)F)c(F)c3)NC(=O)CN(C)C(=O)[C@H](Cc3ccc(C(F)(F)F)cc3)N3CCCC[C@@H](C3=O)N(C)C(=O)CN(C)C(=O)[C@H]([C@@H](C)CC)NC(=O)[C@H](CC(C)C)N(C)C(=O)C[C@@H](C(=O)N3CCOCC3)N(C)C(=O)[C@H](C3CCCC3)N(C)C(=O)C3(CCC3)NC(=O)[C@H]12 [PP1080] | B (a compound having 3 or more and less than 10 is denoted as B) | B (a compound having 3 or more and less than 10 is denoted as B)
CCO[C@@H]1CCN2C(=O)[C@H](CCc3cc(F)c(C(F)(F)F)c(F)c3)NC(=O)CN(C)C(=O)[C@H](Cc3ccc(C(F)(F)F)cc3)N3CCCCC[C@@H](C3=O)N(C)C(=O)CN(C)C(=O)[C@H]([C@@H](C)CC)NC(=O)[C@H](CC(C)C)N(C)C(=O)C[C@@H](C(=O)N3CCOCC3)N(C)C(=O)[C@H](C3CCCC3)N(C)C(=O)C3(CCC3)NC(=O)[C@H]12 [PP1082] | A (a compound having 10 or more and less than 20 is denoted as A) | B (a compound having 3 or more and less than 10 is denoted as B)
